The series addresses T1, human TLR8 (Homo sapiens, UniProt Q9NR97).
T1 construct: host or cells: HEK-Blue TLR8 293 (TLR8-HEK-293)
T1 sequence (Q9NR97 27-1041): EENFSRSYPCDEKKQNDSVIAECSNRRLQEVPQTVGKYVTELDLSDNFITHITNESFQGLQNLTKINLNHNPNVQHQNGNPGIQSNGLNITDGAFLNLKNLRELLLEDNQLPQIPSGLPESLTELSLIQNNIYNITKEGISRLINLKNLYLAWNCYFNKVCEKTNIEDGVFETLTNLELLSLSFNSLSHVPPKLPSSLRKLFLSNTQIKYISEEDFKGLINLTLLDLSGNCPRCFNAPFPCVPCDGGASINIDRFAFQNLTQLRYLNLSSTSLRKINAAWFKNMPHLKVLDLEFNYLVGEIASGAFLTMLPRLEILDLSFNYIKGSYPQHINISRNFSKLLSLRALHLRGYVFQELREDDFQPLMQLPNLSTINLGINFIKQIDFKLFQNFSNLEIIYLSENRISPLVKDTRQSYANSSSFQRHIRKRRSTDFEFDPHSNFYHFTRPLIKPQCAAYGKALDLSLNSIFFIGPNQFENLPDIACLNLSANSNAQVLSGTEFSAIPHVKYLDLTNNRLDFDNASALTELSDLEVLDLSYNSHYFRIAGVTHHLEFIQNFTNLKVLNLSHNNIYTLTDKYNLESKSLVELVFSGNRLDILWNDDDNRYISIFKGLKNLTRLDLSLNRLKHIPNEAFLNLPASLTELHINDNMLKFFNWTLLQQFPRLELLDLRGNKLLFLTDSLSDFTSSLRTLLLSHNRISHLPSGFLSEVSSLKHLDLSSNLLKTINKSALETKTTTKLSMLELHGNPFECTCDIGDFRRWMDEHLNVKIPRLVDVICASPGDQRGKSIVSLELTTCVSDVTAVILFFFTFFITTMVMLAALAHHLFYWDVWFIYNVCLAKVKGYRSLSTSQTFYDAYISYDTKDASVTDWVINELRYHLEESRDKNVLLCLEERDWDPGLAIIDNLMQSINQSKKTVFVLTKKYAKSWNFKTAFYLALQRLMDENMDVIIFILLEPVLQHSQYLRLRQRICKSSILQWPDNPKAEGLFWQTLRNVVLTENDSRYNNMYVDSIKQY
Nature of the series: NF-κB reporter assay (QUANTI-Blue) in TLR8-HEK-293 cells. As to conditions: Dotap formulations of miRNA. The class given is cell-based. The method, then: To investigate whether miRNA-induced activation of TLRs also occurs in human cells, an NF-κB reporter assay was performed in HEK-293 cells. NF-κB, a transcription factor modulating the expression of several cytokine genes, is activated by several TLRs, including the only ssRNA-binding human TLRs, TLR7 and TLR8. Therefore, we treated HEK-293 cells expressing human TLR7 or TLR8 (hereafter, TLR7- and TLR8-HEK-293 cells, respectively) with Dotap alone or with Dotap formulations of miR-16, -21, -29a, or -147 and performed an NF-κB reporter assay. As positive controls Gardiquimod and ssRNA40 were used, specific agonists of TLR7 and TLR8, respectively. […] To confirm this conclusion, transfected were TLR8-HEK-293 cells with a plasmid encoding a dominant negative form of TLR8 (TLR8DN) and treated these cells with the miRNAs of interest. In TLR8DN cells, the activation of NF-κB by miR-21 and miR-29a was abolished (FIG. 3F). […] NF-κB activity was assessed by QUANTI-Blue Assay (Invivogen). […] Levels of SEAP can be easily determined with QUANTI-Blue, a detection medium that turns purple/blue in the presence of alkaline phosphatase. […] The plate was then incubated at 37° C. for 1-3 h and SEAP levels were determined by reading the plate with a spectrophotometer at 620-655 nm (SpectraMax, Molecular Devices).
Background: In a reporter assay the amount or activity of a reporter protein is the signal.

Turning to “miR-147: synthetic mature miRNA (SEQ ID NO: 3), sequence similar to RNA33, Dotap formulation (GUGUGUGGAAAUGCUUCUGC; DOTAP formulation, further chemistry not given here)”, the NF-κB activation result is “activated”.

For the origin of these results see patent publication US9481885B2, “Methods and compositions related to miR-21 and miR-29a, exosome inhibition, and cancer metastasis” (Ohio State Innovation Foundation, priority 2011, dated 2016).
